Measured values reported in patent publication US6365619B1, “Treatment of arteriosclerosis” (Novartis AG, priority 1999, dated 2002).

Tests used:
[1] = system: neointimal formation in a mouse model of carotid artery transplantation; assay: Murine carotid artery loop transplantation: neointimal formation (transplant-associated arteriosclerosis); assay type: in vivo; conditions: mean±SD
Source text: The effect of compound 369 (VLA-4 antagonist) and compound 741 (VCAM-1 inhibitor) on the development of transplant-associated arteriosclerosis as measured by neointimal formation in a mouse model of carotid artery transplantation is investigated as mono-, combined, and tolerance induction therapy. Grafts are harvested at 30 days post-transplantation.
A murine model of accelerated transplant arteriosclerosis is used. Carotid arteries are allografted from B10.A (2R) to B10.BR mice, a commercially available strain combination that consistently results in neointimal formation 30 days after transplantation. The procedure is performed on anesthetized mice under a surgical dissecting microscope. A midline incision is made on the ventral side of neck from the suprasternal notch to the chin. The left carotid artery is gently dissected from the bifurcation in the distal end toward the proximal end as far as is technically possible. The artery is then occluded with two microvascular clamps, one at each end, and two longitudinal arteriotomies (0.5 to 0.6 mm) are made with a fine needle and scissors. In the donor mouse both the left and right carotid arteries are fully dissected from the arch to the bifurcation. The graft is then transplanted paratopically into the recipient in an end-to-side anastamosis with 11/0 continuous suture, and the skin incision is closed with a 5/0 interrupted suture. […] Vascular grafts are harvested 30 days after transplantation, a point at which a fully developed, nearly occlusive neointima is formed.
Compound 369: In the monotherapy experiments, compound 369 is administered three times per day subcutaneously (s.c.) for a total daily dose of 90 mg/kg/day.
Compound 741: Compound 741 is administered continuously via alzet pump in a dose of 5.0, 1.0, and 0.5 mg/kg/day, respectively.
Anti VLA-4 Mab: The anti VLA-4 antibody is administered 100 μg/mouse/d i.p.
A fixed dose of compound 369 is given as a total daily dose of 60 mg/kg/day s.c. and compound 741 is administered continuously via alzet pump at a dose of 5.0, 1.0, and 0.5 mg/kg/day, respectively.
Compound 369 (60 mg/kg/d) and compound 741 (5 mg/kg/d) are given simultaneously for the first 10 days only.
In all cases, allografts are harvested at day 30. […]
Morphometrical analysis is performed on VerHoeff stained paraffin sections using a computer-assisted image analysis system. The areas of the neointima are measured by computerized planimetry of sections obtained approximately 150, 300, and 450 μm from the center of the graft.
Data from morphometric analyses are reported as the neointima area on cross-section determined by subtracting the new lumen area measurement from the internal elastic lamina (IEL) area measurement for each animal. […]

[2] = Dissolution of compound 741 in dosing vehicle; assay type: physicochemical; conditions: 1:1 mixture of CsA placebo solution (Cremphor, ethanol) and propylene glycol
Method: Compound 741 is dissolved in a 1:1 mixture of CsA placebo solution (each mL contains 650 mg of Cremphor and 32.9% ethanol) and propylene glycol. Compound 741 is very soluble in this mixture and the final solution is clear.

Row | solubility [2] | Compound | neointima area on cross-section ([1]; monotherapy compound 369 90 mg/kg/d s.c. (three times per day), allograft harvested day 30) | neointima area on cross-section ([1]; monotherapy Cmpd.741 0.5 mg/kg/d continuously via alzet pump, allograft harvested day 30) | neointima area on cross-section ([1]; monotherapy Cmpd.741 1 mg/kg/d continuously via alzet pump, allograft harvested day 30) | neointima area on cross-section ([1]; monotherapy Cmpd.741 5 mg/kg/d continuously via alzet pump, B10.A (2R) to B10.BR allograft harvested day 30)
1 | – | COCCCN(CC(=O)N[C@@H](CC(=O)O)c1ccc(OC)c(OC)c1)C(=O)Cc1ccc(NC(=O)Nc2ccccc2C)cc1 [Cmpd.369, (S)-β-[3-Methoxypropyl)[[4-[(2-methylphenylaminocarbonylamino)-phenyl]acetyl]amino]acetylamino-3,4-dimethoxy-benzenepropanoic Acid] | 19,874 μm^2 | – | – | –
2 | very soluble | CCCCC(C)CC1NC(=O)C(Cc2cn(OC)c3ccccc23)N(C)C(=O)C(CC(C)C)NC(=O)C(CC(C)C)N(C)C(=O)C(CC(C)CCCC)NC(=O)C(CCC(=O)OCCC)OC(=O)C(C)N(C)C1=O (centres unmarked) [Cmpd.741] | – | 30,926 μm^2 | 32,249 μm^2 | 18,804 μm^2
